{"source": "patent US8158828B2", "about": "“Nuclear receptor binding agents” (priority 2005, dated 2012)", "target": "T1, AR (Rattus norvegicus, UniProt P15207)", "T1 construct": "expressed in transfected cells; host or cells: COS cells", "T1 sequence (P15207 1-902)": "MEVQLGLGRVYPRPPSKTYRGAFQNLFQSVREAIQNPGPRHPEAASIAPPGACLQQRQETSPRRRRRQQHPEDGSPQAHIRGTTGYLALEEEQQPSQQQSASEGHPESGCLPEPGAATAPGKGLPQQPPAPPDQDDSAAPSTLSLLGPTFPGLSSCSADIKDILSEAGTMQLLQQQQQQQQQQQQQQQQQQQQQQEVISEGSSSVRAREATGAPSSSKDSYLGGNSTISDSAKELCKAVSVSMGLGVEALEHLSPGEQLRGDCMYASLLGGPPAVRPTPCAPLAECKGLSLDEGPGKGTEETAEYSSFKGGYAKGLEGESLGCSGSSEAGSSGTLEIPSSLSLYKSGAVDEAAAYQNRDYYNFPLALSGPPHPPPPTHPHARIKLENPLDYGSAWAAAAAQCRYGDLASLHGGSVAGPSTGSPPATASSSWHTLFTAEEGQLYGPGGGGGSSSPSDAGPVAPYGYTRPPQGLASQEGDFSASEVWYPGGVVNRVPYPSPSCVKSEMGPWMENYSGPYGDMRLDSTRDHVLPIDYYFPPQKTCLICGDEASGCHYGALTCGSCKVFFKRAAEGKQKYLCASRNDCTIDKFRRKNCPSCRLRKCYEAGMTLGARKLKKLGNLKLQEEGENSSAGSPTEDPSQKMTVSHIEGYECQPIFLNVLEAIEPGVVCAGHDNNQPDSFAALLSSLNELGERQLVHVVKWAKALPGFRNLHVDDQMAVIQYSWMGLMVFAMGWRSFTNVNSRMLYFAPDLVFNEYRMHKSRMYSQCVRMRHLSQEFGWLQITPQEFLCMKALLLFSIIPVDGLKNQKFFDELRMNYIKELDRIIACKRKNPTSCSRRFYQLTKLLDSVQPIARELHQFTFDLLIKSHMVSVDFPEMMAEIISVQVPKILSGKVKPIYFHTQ", "assay": "AR transactivation, ARE-LUC in COS cells", "format": "cell-based", "description": "FIG. 3: Effect of the indicated compounds on AR transactivation. COS cells plated in DME without phenol red+10% csFBS at 90,000 cells per well of a 24 well plate were transfected with 0.25 μg ARE-LUC, 0.02 μg CMV-LUC (Renilla) and 12.5 ng of AR by lipofectamine. Twenty four hours after transfection, the cells were treated as indicated in the figure, harvested 48 hrs after transfection and were assayed for firefly and renilla luciferase.\nAlso 25 ng of ER-α (FIGS. 1, 5, and 9), 50 ng of ER-β (FIGS. 2, 6 and 10) or 12.5 ng of AR (FIG. 3) were introduced by lipofectamine. All the receptors were cloned from rat tissue into the PCR3.1 vector backbone. […] Cells were harvested 48 hrs after transfection, and assayed for firefly and Renilla luciferase activity.", "data": [{"smiles": "O=C(c1ccccc1)N(c1ccc(O)cc1)c1ccc(OCCN2CCCCC2)cc1", "note": "[Compound 4a, N-(4-hydroxyphenyl)-N-[4-(2-piperidin-1-ylethoxy)-phenyl]-benzamide]", "values": [{"measurement": "AR LUC expression, compound alone", "value": "no effect on LUC expression"}, {"measurement": "inhibition of DHT-induced AR activation", "setting": "with DHT", "value": "nor did it inhibit DHT-induced AR activation"}]}]}
